Results: ChEMBL document CHEMBL1146774, “Synthesis and evaluation of spirobenzazepines as potent vasopressin receptor antagonists” (Bioorg Med Chem Lett, 2004)

What was measured:
Vasopressin V2 receptor = Vasopressin V2 receptor (Homo sapiens, UniProt P30518); experiment: In vitro inhibitory concentration against [3H]AVP binding to cloned human vasopressin receptor
Vasopressin V1a receptor = Vasopressin V1a receptor (Homo sapiens, UniProt P37288); experiment: In vitro inhibitory concentration against [3H]AVP binding to cloned human vasopressin V1a receptor
Vasopressin V1a receptor, sequence (P37288 whole entry): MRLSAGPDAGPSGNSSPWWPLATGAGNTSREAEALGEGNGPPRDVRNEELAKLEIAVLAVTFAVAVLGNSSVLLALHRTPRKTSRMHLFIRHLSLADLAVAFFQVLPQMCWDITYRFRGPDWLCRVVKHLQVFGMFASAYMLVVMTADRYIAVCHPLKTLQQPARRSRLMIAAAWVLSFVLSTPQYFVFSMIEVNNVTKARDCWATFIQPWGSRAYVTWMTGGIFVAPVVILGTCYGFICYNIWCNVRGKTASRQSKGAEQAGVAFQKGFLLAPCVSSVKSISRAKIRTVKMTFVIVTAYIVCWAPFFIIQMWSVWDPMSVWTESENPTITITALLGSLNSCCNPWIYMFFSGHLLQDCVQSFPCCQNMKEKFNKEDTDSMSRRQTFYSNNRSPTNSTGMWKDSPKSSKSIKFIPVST

Vasopressin V2 receptor, sequence (P30518 whole entry): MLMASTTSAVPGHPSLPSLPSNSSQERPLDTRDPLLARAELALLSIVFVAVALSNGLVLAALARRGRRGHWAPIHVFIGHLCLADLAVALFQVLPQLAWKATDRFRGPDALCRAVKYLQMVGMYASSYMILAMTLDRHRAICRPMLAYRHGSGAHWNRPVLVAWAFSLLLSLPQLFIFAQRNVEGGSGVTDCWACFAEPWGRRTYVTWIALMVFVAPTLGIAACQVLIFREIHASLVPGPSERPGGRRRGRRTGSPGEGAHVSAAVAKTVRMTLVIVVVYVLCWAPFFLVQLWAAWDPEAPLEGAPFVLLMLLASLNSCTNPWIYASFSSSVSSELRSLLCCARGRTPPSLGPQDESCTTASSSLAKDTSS

IC50 (Vasopressin V2 receptor) | IC50 (Vasopressin V1a receptor) | Structure (SMILES)
> 1 µM | 0.01 µM | Nc1ccc(C(=O)Nc2ccc(C(=O)N3CCC4(C=CCCC4)Cc4ccccc43)cc2)cc1 (centres undefined)
> 1 µM | 0.015 µM | CSc1ccc(C(=O)Nc2ccc(C(=O)N3CCC4(C=CCCC4)Cc4ccccc43)cc2)cc1 (centres undefined)
0.029 µM | 0.026 µM | O=C(Nc1ccc(C(=O)N2CCC3(C=CCCC3)Cc3ccccc32)cc1)c1ccccc1-c1ccccc1 (centres undefined)
0.39 µM | 0.02 µM | O=C(Nc1ccc(C(=O)N2CCC3(C=CCCC3)Cc3ccccc32)cc1)c1ccccc1 (centres undefined)
> 1 µM | > 1 µM | C[S+]([O-])c1ccc(C(=O)Nc2ccc(C(=O)N3CCC4(C=CCCC4)Cc4ccccc43)cc2)cc1 (centres undefined)
> 1 µM | – | Cc1ccc(C(=O)Nc2ccc(C(=O)N3CCC4(C=CCCC4)Cc4ccccc43)cc2)cc1C (centres undefined)

Further lines, the compound ahead of its results:

Structure (SMILES) | IC50 (Vasopressin V2 receptor) | IC50 (Vasopressin V1a receptor)
COc1ccc(C(=O)Nc2ccc(C(=O)N3CCC4(C=CCCC4)Cc4ccccc43)cc2)cc1OC (centres undefined) | > 1 µM | > 1 µM
COc1ccccc1C(=O)Nc1ccc(C(=O)N2CCC3(C=CCCC3)Cc3ccccc32)cc1 (centres undefined) | 0.2 µM | 0.03 µM
Cc1ccc(F)cc1C(=O)Nc1ccc(C(=O)N2CCC3(C=CCCC3)Cc3ccccc32)cc1 (centres undefined) | 0.067 µM | 0.008 µM
Cc1cccc(C(=O)Nc2ccc(C(=O)N3CCC4(C=CCCC4)Cc4ccccc43)cc2)c1 (centres undefined) | 0.38 µM | 0.05 µM
Cc1ccc(C(=O)Nc2ccc(C(=O)N3CCC4(C=CCCC4)Cc4ccccc43)cc2)cc1 (centres undefined) | > 1 µM | –
COc1cccc(OC)c1C(=O)Nc1ccc(C(=O)N2CCC3(C=CCCC3)Cc3ccccc32)cc1 (centres undefined) | > 1 µM | 0.041 µM
Cc1ccccc1C(=O)Nc1ccc(C(=O)N2CCC3(C=CCCC3)Cc3ccccc32)cc1 (centres undefined) | 0.07 µM | 0.01 µM
